US11938200B2, “Non-nutritive sweeteners and polyols as imaging agents” (THE TRUSTEES OF THE UNIVERSITY OF PENNSYLVANIA, priority 2016, dated 2024)

What was measured:
rat brain tumor = assay: SWEETEST (CEST) MRI, sucralose injection studies in a rat brain tumor; format: in vivo; details: sucralose 300 mM via tail vein, 40 minute post injection, vs baseline
Protocol: (§1) Different concentration of Splenda and sucralose were prepared in PBS and all the experiments were performed at 37° C. on a 9.4 T horizontal bore small animal MR scanner (Varian, Palo Alto, CA). CEST images were acquired at different saturation power and saturation lengths from frequency offset −5 to 5 ppm in step size of 0.1 ppm. Acquired CEST images were corrected for B0 and used to generate CEST contrast map using Equation [1].
(§2) [formula] where S−ve and S+ve are the B0 corrected MRI signals obtained at −1 ppm and +1 ppm respectively, and S0 is the image obtained without any saturation. CEST contrast was further corrected for B1 and mapped as false-colors onto anatomical proton image. The CEST asymmetry plots were generated by plotting the relative water signal difference at frequency offset from 0 to 4.8 ppm. • FIG. 1: Z-spectra (A), asymmetry plot (B), and CEST map (C) of CEST effect from 0.5% Splenda. […]
(§3) Imaging was performed in tumor-bearing animals at a 9.4 T horizontal bore Varian system. […] Respiration and body temperature were continuously monitored using a MRI-compatible small animal monitor system (SA Instruments, Inc., Stony Brook, NY). CEST imaging was performed using a custom-programmed, segmented radiofrequency GRE readout pulse sequence, with a frequency selective continuous wave saturation preparation pulse. […]

mouse tumors = assay: CEST MRI of tumor-bearing animals before and after sucralose injection; format: in vivo; details: tumor region; sucralose 100 mM intra peritoneally; at 40 minutes; vs baseline
Protocol: as §1, §2, §3

SMILES: OC[C@H]1O[C@H](O[C@]2(CCl)O[C@H](CCl)[C@@H](O)[C@@H]2O)[C@H](O)[C@@H](O)[C@H]1Cl [sucralose]
- increase in SWEETEST contrast (rat brain tumor): ~80%
- percent change in the contrast post injection of sucralose (mouse tumors): about 100%
